From patent publication US11208412B2 (DAEGU-GYEONGBUK MEDICAL INNOVATION FOUNDATION, priority 2017, dated 2021)
Like-named read-outs stand apart in the source and are kept apart here.

How the values were obtained:
Experiment in all cases: Kinase selectivity, DiscoverX scanMAX Kinase assay panel (% control)
Format in all cases: binding
[1] = biological target: T1, kinases of the scanMAX Kinase assay panel (Homo sapiens, UniProt O96017); conditions: CHEK2; 1 uM
T1 construct: purchased DiscoverX Co. (contract measurement) scanMAX Kinase assay panel
T1 sequence (O96017 whole entry): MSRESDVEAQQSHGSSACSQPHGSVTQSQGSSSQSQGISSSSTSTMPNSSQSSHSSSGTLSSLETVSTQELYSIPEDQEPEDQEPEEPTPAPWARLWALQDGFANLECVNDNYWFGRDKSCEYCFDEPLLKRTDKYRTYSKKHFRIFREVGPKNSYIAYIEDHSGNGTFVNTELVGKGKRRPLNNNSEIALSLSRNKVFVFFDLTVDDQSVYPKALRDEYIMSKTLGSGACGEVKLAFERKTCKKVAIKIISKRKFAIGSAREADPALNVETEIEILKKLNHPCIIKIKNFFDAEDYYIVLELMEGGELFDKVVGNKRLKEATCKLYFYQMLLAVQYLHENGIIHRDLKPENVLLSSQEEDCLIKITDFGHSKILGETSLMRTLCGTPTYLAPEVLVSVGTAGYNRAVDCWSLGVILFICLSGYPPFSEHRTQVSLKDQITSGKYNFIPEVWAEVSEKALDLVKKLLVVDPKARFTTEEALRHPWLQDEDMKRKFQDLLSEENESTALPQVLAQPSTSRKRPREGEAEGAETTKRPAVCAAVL
Method in brief: (§1)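 Compounds tested at 1 uM against the scanMAX kinase panel. Signal expressed as % control = (compound − positive control)/(DMSO negative control − positive control) × 100, where positive control = 0% and DMSO = 100%; below 35% counted as activity on that kinase.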

[2] = biological target: T2, kinases of the scanMAX Kinase assay panel (Homo sapiens, UniProt Q9Y4K4); conditions: MAP4K5; 1 uM
T2 construct: purchased DiscoverX Co. (contract measurement) scanMAX Kinase assay panel
T2 sequence (Q9Y4K4 whole entry): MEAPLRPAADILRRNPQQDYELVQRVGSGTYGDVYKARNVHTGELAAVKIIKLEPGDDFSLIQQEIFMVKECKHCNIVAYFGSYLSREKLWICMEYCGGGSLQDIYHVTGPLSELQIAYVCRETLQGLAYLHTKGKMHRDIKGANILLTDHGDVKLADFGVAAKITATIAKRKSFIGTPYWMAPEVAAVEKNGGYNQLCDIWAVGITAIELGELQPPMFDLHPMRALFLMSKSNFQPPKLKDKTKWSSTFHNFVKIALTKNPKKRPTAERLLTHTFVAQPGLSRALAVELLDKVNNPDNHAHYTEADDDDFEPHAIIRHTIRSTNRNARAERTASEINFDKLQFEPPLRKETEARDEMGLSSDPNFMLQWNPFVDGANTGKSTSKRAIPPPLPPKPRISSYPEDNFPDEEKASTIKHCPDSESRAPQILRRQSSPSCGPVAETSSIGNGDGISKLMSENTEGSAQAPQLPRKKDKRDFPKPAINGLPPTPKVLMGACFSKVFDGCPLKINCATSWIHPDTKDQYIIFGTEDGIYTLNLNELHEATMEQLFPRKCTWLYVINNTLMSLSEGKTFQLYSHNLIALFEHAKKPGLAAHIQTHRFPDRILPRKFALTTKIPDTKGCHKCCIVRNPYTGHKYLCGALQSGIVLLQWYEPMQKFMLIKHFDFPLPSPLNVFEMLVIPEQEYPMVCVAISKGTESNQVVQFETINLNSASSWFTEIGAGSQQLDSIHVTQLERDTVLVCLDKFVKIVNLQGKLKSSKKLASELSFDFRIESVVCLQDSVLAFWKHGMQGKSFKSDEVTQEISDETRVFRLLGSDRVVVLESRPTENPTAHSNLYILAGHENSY
Method in brief: as §1

[3] = biological target: T3, kinases of the scanMAX Kinase assay panel (Homo sapiens, UniProt P42336, H1047L); conditions: PIK3CA(H1047L); 1 uM
T3 construct: purchased DiscoverX Co. (contract measurement) scanMAX Kinase assay panel
Method in brief: as §1

[4] = biological target: T4, kinases of the scanMAX Kinase assay panel (Homo sapiens, UniProt P48730); conditions: CSNK1D; 1 uM
T4 construct: purchased DiscoverX Co. (contract measurement) scanMAX Kinase assay panel
T4 sequence (P48730 whole entry): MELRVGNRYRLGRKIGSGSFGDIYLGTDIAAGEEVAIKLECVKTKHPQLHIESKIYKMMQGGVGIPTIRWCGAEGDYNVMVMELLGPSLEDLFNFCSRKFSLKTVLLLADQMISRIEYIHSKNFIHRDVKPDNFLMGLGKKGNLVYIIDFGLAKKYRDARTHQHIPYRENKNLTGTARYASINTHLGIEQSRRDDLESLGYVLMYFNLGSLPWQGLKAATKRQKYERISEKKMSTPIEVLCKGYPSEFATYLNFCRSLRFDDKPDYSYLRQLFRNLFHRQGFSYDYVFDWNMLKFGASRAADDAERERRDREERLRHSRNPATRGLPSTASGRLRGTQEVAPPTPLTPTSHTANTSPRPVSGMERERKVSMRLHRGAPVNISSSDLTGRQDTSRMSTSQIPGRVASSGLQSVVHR
Method in brief: as §1

[5] = biological target: T5, kinases of the scanMAX Kinase assay panel (Homo sapiens, UniProt Q16620); conditions: kinase TRKB; 1 uM in DMSO
T5 construct: purchased DiscoverX Co. (contract measurement) scanMAX Kinase assay panel
T5 sequence (Q16620 32-822): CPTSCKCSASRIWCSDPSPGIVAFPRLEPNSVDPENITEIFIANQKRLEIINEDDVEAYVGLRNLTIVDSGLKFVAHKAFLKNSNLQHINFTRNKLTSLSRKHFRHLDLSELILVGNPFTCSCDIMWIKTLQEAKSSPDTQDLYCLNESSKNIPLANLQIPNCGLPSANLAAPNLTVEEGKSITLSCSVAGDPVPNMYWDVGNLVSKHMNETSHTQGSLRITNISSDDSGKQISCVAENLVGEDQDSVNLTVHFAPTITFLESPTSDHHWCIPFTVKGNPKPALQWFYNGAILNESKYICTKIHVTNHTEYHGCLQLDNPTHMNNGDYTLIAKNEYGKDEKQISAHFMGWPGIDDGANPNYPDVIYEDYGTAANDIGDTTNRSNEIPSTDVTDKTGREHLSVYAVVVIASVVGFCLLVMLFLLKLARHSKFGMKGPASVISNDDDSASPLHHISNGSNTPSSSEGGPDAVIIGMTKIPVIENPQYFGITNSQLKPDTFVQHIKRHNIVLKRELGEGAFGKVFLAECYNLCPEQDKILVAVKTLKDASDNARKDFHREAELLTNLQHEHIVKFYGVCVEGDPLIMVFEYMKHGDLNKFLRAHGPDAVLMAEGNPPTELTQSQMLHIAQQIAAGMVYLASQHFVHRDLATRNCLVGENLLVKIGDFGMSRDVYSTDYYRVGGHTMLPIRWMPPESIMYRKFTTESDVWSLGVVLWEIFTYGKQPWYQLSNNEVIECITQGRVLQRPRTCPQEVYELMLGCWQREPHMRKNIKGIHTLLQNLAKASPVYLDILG
Method in brief: as §1

[6] = biological target: T6, kinases of the scanMAX Kinase assay panel (Homo sapiens, UniProt Q8N568); conditions: DCAMKL2; 1 uM
T6 construct: purchased DiscoverX Co. (contract measurement) scanMAX Kinase assay panel
T6 sequence (Q8N568 whole entry): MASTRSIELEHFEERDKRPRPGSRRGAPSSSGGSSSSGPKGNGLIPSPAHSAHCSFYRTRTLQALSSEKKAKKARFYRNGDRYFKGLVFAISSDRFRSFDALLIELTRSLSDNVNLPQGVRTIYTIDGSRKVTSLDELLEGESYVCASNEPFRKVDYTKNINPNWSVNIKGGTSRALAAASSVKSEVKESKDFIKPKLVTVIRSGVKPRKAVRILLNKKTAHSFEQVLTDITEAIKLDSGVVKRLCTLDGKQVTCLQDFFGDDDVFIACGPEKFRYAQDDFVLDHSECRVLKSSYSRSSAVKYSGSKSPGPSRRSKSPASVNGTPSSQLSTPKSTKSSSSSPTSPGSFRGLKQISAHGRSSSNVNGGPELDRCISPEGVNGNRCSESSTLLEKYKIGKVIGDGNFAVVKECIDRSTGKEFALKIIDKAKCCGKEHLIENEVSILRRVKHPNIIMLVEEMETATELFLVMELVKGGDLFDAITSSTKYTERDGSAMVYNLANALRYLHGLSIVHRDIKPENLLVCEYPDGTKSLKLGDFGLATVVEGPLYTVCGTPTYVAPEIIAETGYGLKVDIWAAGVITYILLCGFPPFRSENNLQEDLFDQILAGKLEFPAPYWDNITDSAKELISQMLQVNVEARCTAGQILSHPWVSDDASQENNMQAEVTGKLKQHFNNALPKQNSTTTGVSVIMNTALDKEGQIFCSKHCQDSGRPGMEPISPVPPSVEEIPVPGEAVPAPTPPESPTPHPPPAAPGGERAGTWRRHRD
Method in brief: as §1

[7] = biological target: T7, kinases of the scanMAX Kinase assay panel (Homo sapiens, UniProt Q9H1R3); conditions: MYLK2; 1 uM
T7 construct: purchased DiscoverX Co. (contract measurement) scanMAX Kinase assay panel
T7 sequence (Q9H1R3 whole entry): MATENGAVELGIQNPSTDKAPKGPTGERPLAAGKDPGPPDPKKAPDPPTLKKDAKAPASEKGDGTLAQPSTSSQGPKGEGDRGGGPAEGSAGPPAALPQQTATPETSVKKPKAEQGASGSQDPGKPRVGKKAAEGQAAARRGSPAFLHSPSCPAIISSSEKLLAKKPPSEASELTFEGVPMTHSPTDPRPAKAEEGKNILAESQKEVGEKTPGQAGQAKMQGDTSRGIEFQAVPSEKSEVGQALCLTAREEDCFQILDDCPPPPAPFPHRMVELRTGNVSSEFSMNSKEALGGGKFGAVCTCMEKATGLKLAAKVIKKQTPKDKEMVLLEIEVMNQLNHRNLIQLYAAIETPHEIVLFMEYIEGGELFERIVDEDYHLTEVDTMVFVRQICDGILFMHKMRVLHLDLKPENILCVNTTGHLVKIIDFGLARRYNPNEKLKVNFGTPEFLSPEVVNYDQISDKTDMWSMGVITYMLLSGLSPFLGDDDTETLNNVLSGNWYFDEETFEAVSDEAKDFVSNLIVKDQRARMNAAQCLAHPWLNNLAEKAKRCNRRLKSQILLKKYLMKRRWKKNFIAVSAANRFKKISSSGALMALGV
Method in brief: as §1

[8] = biological target: T8, kinases of the scanMAX Kinase assay panel (Homo sapiens, UniProt Q8TD19); conditions: NEK9; 1 uM
T8 construct: purchased DiscoverX Co. (contract measurement) scanMAX Kinase assay panel
T8 sequence (Q8TD19 1-979): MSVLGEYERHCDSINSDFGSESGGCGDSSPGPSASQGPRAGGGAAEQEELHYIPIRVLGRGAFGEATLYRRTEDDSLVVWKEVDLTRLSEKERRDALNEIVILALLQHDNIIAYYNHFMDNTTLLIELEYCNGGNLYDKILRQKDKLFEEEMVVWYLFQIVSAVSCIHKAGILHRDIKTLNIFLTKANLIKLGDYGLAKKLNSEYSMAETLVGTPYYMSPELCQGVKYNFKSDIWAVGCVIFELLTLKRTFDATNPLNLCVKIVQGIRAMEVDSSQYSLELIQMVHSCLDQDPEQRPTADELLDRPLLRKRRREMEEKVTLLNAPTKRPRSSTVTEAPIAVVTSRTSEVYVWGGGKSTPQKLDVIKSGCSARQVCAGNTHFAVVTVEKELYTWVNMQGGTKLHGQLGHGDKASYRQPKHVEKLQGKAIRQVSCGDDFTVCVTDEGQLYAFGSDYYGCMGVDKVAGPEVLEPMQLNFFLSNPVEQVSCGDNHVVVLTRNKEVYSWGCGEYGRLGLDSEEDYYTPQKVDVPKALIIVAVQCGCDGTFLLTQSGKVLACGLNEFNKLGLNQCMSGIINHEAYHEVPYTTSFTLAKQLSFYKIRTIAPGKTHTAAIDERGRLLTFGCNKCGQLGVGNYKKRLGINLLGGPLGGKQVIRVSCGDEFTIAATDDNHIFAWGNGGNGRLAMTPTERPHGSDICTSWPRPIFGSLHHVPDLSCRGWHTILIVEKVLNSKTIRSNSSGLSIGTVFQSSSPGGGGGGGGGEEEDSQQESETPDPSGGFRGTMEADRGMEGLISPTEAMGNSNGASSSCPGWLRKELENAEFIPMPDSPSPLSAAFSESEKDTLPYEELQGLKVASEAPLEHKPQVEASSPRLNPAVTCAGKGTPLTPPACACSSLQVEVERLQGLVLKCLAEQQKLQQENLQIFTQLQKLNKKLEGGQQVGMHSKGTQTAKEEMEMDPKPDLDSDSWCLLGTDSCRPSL
Method in brief: as §1

[9] = biological target: T9, kinases of the scanMAX Kinase assay panel (Homo sapiens, UniProt Q9NSY1); conditions: BIKE; 1 uM
T9 construct: purchased DiscoverX Co. (contract measurement) scanMAX Kinase assay panel
Method in brief: as §1

[10] = biological target: T10, kinases of the scanMAX Kinase assay panel (Homo sapiens, UniProt Q9BUB5); conditions: MKNK1; 1 uM
T10 construct: purchased DiscoverX Co. (contract measurement) scanMAX Kinase assay panel
T10 sequence (Q9BUB5 whole entry): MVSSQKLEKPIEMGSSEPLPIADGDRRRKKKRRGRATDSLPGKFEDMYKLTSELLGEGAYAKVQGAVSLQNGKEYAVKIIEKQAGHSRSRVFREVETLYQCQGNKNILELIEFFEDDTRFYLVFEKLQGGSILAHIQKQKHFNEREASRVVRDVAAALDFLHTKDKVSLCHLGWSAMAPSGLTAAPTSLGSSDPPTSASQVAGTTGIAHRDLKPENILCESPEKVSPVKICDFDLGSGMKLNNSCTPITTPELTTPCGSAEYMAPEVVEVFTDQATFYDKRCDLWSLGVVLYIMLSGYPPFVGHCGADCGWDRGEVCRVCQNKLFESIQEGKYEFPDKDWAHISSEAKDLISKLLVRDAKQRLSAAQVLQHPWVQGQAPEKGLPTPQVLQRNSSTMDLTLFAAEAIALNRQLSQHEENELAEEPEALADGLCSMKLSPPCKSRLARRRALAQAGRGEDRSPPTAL
Method in brief: as §1

[11] = biological target: T11, kinases of the scanMAX Kinase assay panel (Homo sapiens, UniProt P48729); conditions: CSNK1A1; 1 uM
T11 construct: purchased DiscoverX Co. (contract measurement) scanMAX Kinase assay panel
T11 sequence (P48729 whole entry): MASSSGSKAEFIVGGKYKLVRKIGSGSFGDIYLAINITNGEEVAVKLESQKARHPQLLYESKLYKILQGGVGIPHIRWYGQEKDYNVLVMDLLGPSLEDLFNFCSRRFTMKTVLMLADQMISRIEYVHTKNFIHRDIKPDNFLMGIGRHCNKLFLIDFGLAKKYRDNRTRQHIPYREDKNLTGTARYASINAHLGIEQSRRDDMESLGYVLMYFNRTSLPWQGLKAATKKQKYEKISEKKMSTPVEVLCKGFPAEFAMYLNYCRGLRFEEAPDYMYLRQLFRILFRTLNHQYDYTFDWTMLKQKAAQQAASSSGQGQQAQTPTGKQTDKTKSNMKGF
Method in brief: as §1

[12] = biological target: T12, kinases of the scanMAX Kinase assay panel (Homo sapiens, UniProt P29597); conditions: 1 uM in DMSO
T12 construct: purchased DiscoverX Co. (contract measurement) scanMAX Kinase assay panel
Method in brief: as §1

[13] = biological target: T13, kinases of the scanMAX Kinase assay panel (Homo sapiens, UniProt Q8NG66); conditions: NEK11; 1 uM
T13 construct: purchased DiscoverX Co. (contract measurement) scanMAX Kinase assay panel
T13 sequence (Q8NG66 1-645): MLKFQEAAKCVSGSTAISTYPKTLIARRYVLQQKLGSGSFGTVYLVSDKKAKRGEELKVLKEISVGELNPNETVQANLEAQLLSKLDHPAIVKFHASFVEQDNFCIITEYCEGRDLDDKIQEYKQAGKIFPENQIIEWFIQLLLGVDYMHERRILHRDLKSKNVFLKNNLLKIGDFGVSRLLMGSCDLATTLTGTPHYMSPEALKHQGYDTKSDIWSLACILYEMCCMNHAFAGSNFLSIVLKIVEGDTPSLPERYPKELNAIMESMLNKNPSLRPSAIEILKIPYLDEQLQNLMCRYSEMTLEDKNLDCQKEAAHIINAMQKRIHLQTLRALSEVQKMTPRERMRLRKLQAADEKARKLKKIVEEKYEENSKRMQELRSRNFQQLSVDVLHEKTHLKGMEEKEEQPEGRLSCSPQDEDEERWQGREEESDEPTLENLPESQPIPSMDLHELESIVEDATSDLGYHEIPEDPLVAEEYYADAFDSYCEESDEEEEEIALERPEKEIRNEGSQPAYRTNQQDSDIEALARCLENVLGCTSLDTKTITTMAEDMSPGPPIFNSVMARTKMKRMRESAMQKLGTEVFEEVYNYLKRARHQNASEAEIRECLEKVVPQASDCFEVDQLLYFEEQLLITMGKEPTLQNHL
Method in brief: as §1

[14] = kinase TYK2(JH1domain-catalytic), read-out: % control, TYK2(JH1domain-catalytic)
[15] = kinase TYK2(JH2domain-pseudokinase), read-out: % control, TYK2(JH2domain-pseudokinase)

SMILES | remaining binding at 1 µM [1] [%] | remaining binding at 1 µM [2] [%] | remaining binding at 1 µM [3] [%] | remaining binding at 1 µM [4] [%] | remaining binding at 1 µM [5] [%] | remaining binding at 1 µM [6] [%] | remaining binding at 1 µM [7] [%] | remaining binding at 1 µM [8] [%] | remaining binding at 1 µM [9] [%] | remaining binding at 1 µM [10] [%] | remaining binding at 1 µM [11] [%] | remaining binding at 1 µM [12, 14] [%] | remaining binding at 1 µM [12, 15] [%] | remaining binding at 1 µM [13] [%]
CNc1nc(Nc2ccc(C(=O)N3CCOCC3)cc2OC)nc2[nH]cc(C#N)c12 [Example 1, 2-((2-methoxy-4-(morpholine-4-carbonyl)phenyl)amino)-4-(methylamino)-7H-pyrrolo[2,3-d]pyrimidine-5-carbonitrile] | 7.7 | 89 | 100 | 5 | 61 | 91 | 88 | 100 | 62 | 62 | 19 | 80 | 66 | 70
CC1(Nc2nc(Nc3cnn([C@H]4CCN(C5COC5)C[C@@H]4F)c3Cl)nc3[nH]cc(C#N)c23)CC1 [Example 52, 2-((5-chloro-1-((3S,4S)-3-fluoro-1-(oxetane-3-yl)piperidine-4-yl)-1H-pyrazole-4-yl)amino)((1-methylcyclopropyl)amino)-7H-pyrrolo[2,3-d]pyrimidine-5-carbonitrile] | 0 | 30 | 70 | 1 | 7.5 | 76 | 100 | 73 | 0 | 100 | 1.6 | 0 | 7.2 | 100
CCNc1nc(Nc2ccc(C(=O)N3CCC(N4CCOCC4)CC3)cc2OC)nc2[nH]cc(C(F)(F)F)c12 [Example 104, (4-((4-(ethylamino)-5-(trifluoromethyl)-7H-pyrrolo[2,3-d]pyrimidine-2-yl)amino)-3-methoxyphenyl)(4-morpholinopiperidine-1-yl)methanone] | 12 | 100 | 88 | 2.6 | 100 | 93 | 100 | 99 | 100 | 100 | 56 | 100 | 100 | 100
